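Exposure lasted 48 hours, with cells grown in 96-well plates and compounds tested at five concentrations. TGI denotes the concentration required for complete inhibition of growth.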
How the values were obtained:
Test in all cases: DTP human tumour cell line panel, 48 h
786-0 renal = system: 786-0 renal
A498 renal = system: A498 renal
A549 NSCLC = system: A549 NSCLC
ACHN renal = system: ACHN renal
BT-549 breast = system: BT-549 breast
CAKI-1 renal = system: CAKI-1 renal
COLO 205 colon = system: COLO 205 colon
DU-145 prostate = system: DU-145 prostate
EKVX NSCLC = system: EKVX NSCLC
HCC-2998 colon = system: HCC-2998 colon
HCT-116 colon = system: HCT-116 colon
HCT-15 colon = system: HCT-15 colon
HL-60(TB) leukemia = system: HL-60(TB) leukemia
HOP-62 NSCLC = system: HOP-62 NSCLC
HOP-92 NSCLC = system: HOP-92 NSCLC
HT29 colon = system: HT29 colon
K-562 leukemia = system: K-562 leukemia
KM12 colon = system: KM12 colon
LOX IMVI melanoma = system: LOX IMVI melanoma
M14 melanoma = system: M14 melanoma
MALME-3M melanoma = system: MALME-3M melanoma
MCF7 breast = system: MCF7 breast
MDA-MB-231 breast = system: MDA-MB-231 breast
MDA-MB-435 = system: MDA-MB-435
MOLT-4 leukemia = system: MOLT-4 leukemia
NCI-H226 lung = system: NCI-H226 lung
NCI-H23 lung = system: NCI-H23 lung
NCI-H460 lung = system: NCI-H460 lung
NCI-H522 lung = system: NCI-H522 lung
NCI/ADR-RES ovarian = system: NCI/ADR-RES ovarian
OVCAR-3 ovarian = system: OVCAR-3 ovarian
OVCAR-4 ovarian = system: OVCAR-4 ovarian
OVCAR-5 ovarian = system: OVCAR-5 ovarian
PC-3 prostate = system: PC-3 prostate
RPMI-8226 leukemia = system: RPMI-8226 leukemia
RXF 393 renal = system: RXF 393 renal
SF-268 CNS = system: SF-268 CNS
SF-295 CNS = system: SF-295 CNS
SF-539 CNS = system: SF-539 CNS
SK-MEL-2 melanoma = system: SK-MEL-2 melanoma
SK-MEL-28 melanoma = system: SK-MEL-28 melanoma
SK-MEL-5 melanoma = system: SK-MEL-5 melanoma
SK-OV-3 ovarian = system: SK-OV-3 ovarian
SNB-19 CNS = system: SNB-19 CNS
SNB-75 CNS = system: SNB-75 CNS
SR leukemia = system: SR leukemia
SW-620 colon = system: SW-620 colon
T-47D breast = system: T-47D breast
TK-10 renal = system: TK-10 renal
U251 CNS = system: U251 CNS
UACC-62 melanoma = system: UACC-62 melanoma
UO-31 renal = system: UO-31 renal
CCRF-CEM leukemia = system: CCRF-CEM leukemia
HS 578T breast = system: HS 578T breast
IGROV1 ovarian = system: IGROV1 ovarian
OVCAR-8 ovarian = system: OVCAR-8 ovarian
SN12C renal = system: SN12C renal
UACC-257 melanoma = system: UACC-257 melanoma

Measured: TGI

COc1cc(C2c3cc(O)c(OC)cc3C3OCC2C3CO)ccc1O (stereo not drawn)
> 100 µM: 786-0 renal | A498 renal | A549 NSCLC | ACHN renal | BT-549 breast | CAKI-1 renal | COLO 205 colon | DU-145 prostate | EKVX NSCLC | HCC-2998 colon | HCT-116 colon | HCT-15 colon | HL-60(TB) leukemia | HOP-62 NSCLC | HOP-92 NSCLC | HT29 colon | K-562 leukemia | KM12 colon | LOX IMVI melanoma | M14 melanoma | MALME-3M melanoma | MCF7 breast | MDA-MB-231 breast | MDA-MB-435 | MOLT-4 leukemia | NCI-H226 lung | NCI-H23 lung | NCI-H460 lung | NCI-H522 lung | NCI/ADR-RES ovarian | OVCAR-3 ovarian | OVCAR-4 ovarian | OVCAR-5 ovarian | PC-3 prostate | RPMI-8226 leukemia | RXF 393 renal | SF-268 CNS | SF-295 CNS | SF-539 CNS | SK-MEL-2 melanoma | SK-MEL-28 melanoma | SK-MEL-5 melanoma | SK-OV-3 ovarian | SNB-19 CNS | SNB-75 CNS | SR leukemia | SW-620 colon | T-47D breast | TK-10 renal | U251 CNS | UACC-62 melanoma | UO-31 renal

N=C(N)N1CCC(N2CCOCC2)CC1
> 100 µM: 786-0 renal | A498 renal | A549 NSCLC | ACHN renal | CCRF-CEM leukemia | COLO 205 colon | DU-145 prostate | EKVX NSCLC | HCC-2998 colon | HCT-116 colon | HCT-15 colon | HL-60(TB) leukemia | HOP-62 NSCLC | HOP-92 NSCLC | HS 578T breast | HT29 colon | IGROV1 ovarian | K-562 leukemia | KM12 colon | M14 melanoma | MALME-3M melanoma | MCF7 breast | MDA-MB-231 breast | MDA-MB-435 | MOLT-4 leukemia | NCI-H226 lung | NCI-H23 lung | NCI-H460 lung | NCI/ADR-RES ovarian | OVCAR-4 ovarian | OVCAR-5 ovarian | OVCAR-8 ovarian | RPMI-8226 leukemia | RXF 393 renal | SF-268 CNS | SF-295 CNS | SF-539 CNS | SK-MEL-28 melanoma | SK-MEL-5 melanoma | SK-OV-3 ovarian | SN12C renal | SNB-19 CNS | SNB-75 CNS | SR leukemia | SW-620 colon | T-47D breast | TK-10 renal | U251 CNS | UACC-257 melanoma | UACC-62 melanoma | UO-31 renal

From PubChem BioAssay (NCI)
